# Earlier results as cited in US6486349B1, “Amide therapeutics and methods for treating inflammatory bowel disease” (Centaur Pharmaceuticals, Inc., priority 1999, dated 2002).
# System: senescence-accelerated mice
smiles,measurement,value
"CC(C)(C)/[N+]([O-])=C/c1ccccc1 [PBN, α-phenyl-t-butyl nitrone]",increase of the life span,one third
